In assay [1] the target is T1, Glutamate receptor ionotropic AMPA (Homo sapiens, UniProt P42261+P42262+P42263+P48058). Put plainly: Displacement of [3H]AMPA from AMPA receptor (unknown origin). In kind it is protein-complex assay. In general terms: Displacement assays read how much labelled ligand stays bound in the presence of the test substance.
In assay [2] the target is T1, Glutamate receptor ionotropic AMPA. Put plainly: Displacement of [3H]kainate from AMPA receptor (unknown origin). In kind it is protein-complex assay.
Assay [3] is described as follows: Displacement of [3H]glycine from AMPA receptor (unknown origin). The class given is protein-complex assay, Homo sapiens.
Assay [4] deals with Glutamate [NMDA] receptor. Put plainly: Displacement of [3H]glycine from NMDA receptor (unknown origin). The class given is protein-complex assay, Homo sapiens.
The nature of assay [5]: Antioxidant activity assessed as DPPH radical scavenging activity. The class given is functional. The settings on record: read-out: IC50. (In general: Loss of DPPH colour is used to gauge radical scavenging.)
Assay [6] is described as follows: Inhibition of ALR2 (unknown origin). Set-up: species or system Homo sapiens.
A short description of assay [7]: Inhibition of ALR1 (unknown origin) relative to control. Set-up: concentration or dose not given beside the values. As to conditions: Homo sapiens; concentration not given here.
Assay [8] in a line: Antioxidant activity assessed as DPPH radical scavenging activity at 100 uM. In kind it is functional.
Assay [9] in a line: Antioxidant activity assessed as DPPH radical scavenging activity at 50 uM. The class given is functional.
A short description of assay [10]: Antioxidant activity assessed as DPPH radical scavenging activity at 10 uM. In kind it is functional.
Assay [11] deals with Human immunodeficiency virus type 1 reverse transcriptase (Human immunodeficiency virus 1, UniProt Q72547). Put plainly: Inhibition of HIV1 reverse transcriptase.
Assay [12] deals with Human immunodeficiency virus type 1 reverse transcriptase (Human immunodeficiency virus 1) (UniProt Q72547). Put plainly: Inhibition of HIV1 reverse transcriptase at 10 uM relative to control.
Assay [13] has the same target. Put plainly: Inhibition of HIV1 reverse transcriptase at 100 uM relative to control.
The subject of assay [14] is Pseudomonas aeruginosa. Put plainly: Antibacterial activity against Pseudomonas aeruginosa. The class given is functional.
In assay [15] the test system is Escherichia coli. Put plainly: Antibacterial activity against Escherichia coli. In kind it is functional.
Assay [16] deals with Staphylococcus aureus. Put plainly: Antibacterial activity against Staphylococcus aureus. In kind it is functional.
Assay [17] has as its system Candida albicans. Put plainly: Antifungal activity against Candida albicans. In kind it is functional.
Assay [18] deals with Klebsiella pneumoniae. Put plainly: Antibacterial activity against Klebsiella pneumoniae. In kind it is functional.
The test system of assay [19] is Staphylococcus aureus. Put plainly: Antibacterial activity against methicillin-resistant Staphylococcus aureus. The class given is functional.
The subject of assay [20] is HeLa 229. Put plainly: Antiproliferative activity against human HeLa 229 cells after 72 hrs by MTT assay. The settings on record: HeLa 229, 72 h. In kind it is functional, cell-based. (Tetrazolium dyes change colour on reduction, which living cells bring about.)
Assay [21] deals with NCI-H460. Put plainly: Antiproliferative activity against human NCI-H460 cells after 72 hrs by MTT assay. In kind it is functional, cell-based. The settings on record: NCI-H460, 72 h.
Assay [22] concerns HCT-116. Put plainly: Antiproliferative activity against human HCT-116 cells after 72 hrs by MTT assay. The class given is functional, cell-based. As to conditions: HCT-116, 72 h.
For assay [23], the system named is B16-F10. Put plainly: Antiproliferative activity against mouse B16-F10 cells after 72 hrs by MTT assay. In kind it is functional, cell-based. The settings on record: B16-F10, 72 h.
In assay [24] the test system is Candida. Put plainly: Antifungal activity against Candida species isolate 1. The class given is functional.
The subject of assay [25] is Candida. Put plainly: Antifungal activity against Candida species isolate 2. In kind it is functional.
Assay [26] has as its system Candida. Put plainly: Antifungal activity against Candida species isolate 3. In kind it is functional.
The subject of assay [27] is Pichia kudriavzevii. Put plainly: Antifungal activity against Candida krusei. In kind it is functional.
The test system of assay [28] is Candida parapsilosis. Put plainly: Antifungal activity against Candida parapsilosis. The settings on record: Lodderomyces parapsilosis. The class given is functional.
The test system of assay [29] is Candida tropicalis. Put plainly: Antifungal activity against Candida tropicalis. In kind it is functional.
For assay [30], the system named is Nakaseomyces glabratus. Put plainly: Antifungal activity against Candida glabrata. The class given is functional.
Assay [31] concerns A549. Put plainly: Antiproliferative activity against human A549 cells. In kind it is functional, cell-based.
Assay [32] concerns HeLa. Put plainly: Antiproliferative activity against human HeLa cells. In kind it is functional, cell-based.
Assay [33] has as its system LS174T. Put plainly: Antiproliferative activity against human LS174T cells. In kind it is functional, cell-based.
In assay [34] the test system is MRC5. Put plainly: Antiproliferative activity against human MRC5 cells. The class given is functional, cell-based.

pIC50, pKi: −log10 of the molar value. Values after ≈ are worked out from the molar mass of the structure shown.

For the compound `CCC(C)N1CCc2c(Br)cc3nc(O)c(O)nc3c2C1` (stereo unspecified), the pIC50 (usually the negative decadic logarithm of the IC50, by convention in mol/L) was 5.60 in assay [1], 6.37 in assay [2] and less than 5.00 in assay [3].

For the compound `CCCc1nnc2c(O)nc3cc(Cl)c(Cl)cc3n12`, in assay [4], the negative-log IC50 (pIC50) is 5.41.

For the compound `COc1cc(/C=C/c2nc3ccccc3n(CC(=O)O)c2=O)ccc1O`, the pIC50 in assay [5] is 4.62; in assay [6], 6.38. Besides, in assay [7], the inhibition – broadly, the share of the control response that was lost under treatment – turned out to be 32.6%. The figures for the Activity in [8], in assay [9] and in [10] were 95.4%, 68.8% and 39.6%, respectively.

Compound `CC(C)COC(=O)N1c2ccccc2NC(=O)[C@H]1C` had a pIC50 in assay [11] of 4.19. Also, the inhibition in [12] was 37%; in assay [13], 64%.

On to `Cc1cc2[nH]c(=O)c(=O)n(CC(=O)O)c2cc1C`, for which the pKi – broadly, the Ki on a negative log10 scale, so that one unit is a factor of ten – is 6.15 in assay [1] and 4.86 in [4].

Turning to `CSCCc1nc2ccc(N3C(=O)CSC3c3ccc(F)cc3)cc2[nH]c1=O` (stereo unspecified), the MBC in assay [14] worked out at 70.3 µM (≈ 29.2 µg/mL); in assay [15], 46.8 µM (≈ 19.4 µg/mL); in assay [16], 23.4 µM (≈ 9.72 µg/mL); in assay [17], 35.1 µM (≈ 14.6 µg/mL); in [18], 11.7 µM (≈ 4.86 µg/mL); in assay [19], 93.7 µM (≈ 38.9 µg/mL). Further, the negative-log IC50 (pIC50) in [5] is 3.81.

With `Oc1nc2cc(Cl)c(Cl)cc2n2ccnc12`, the pIC50 in assay [1] was 5.13; in assay [4], 5.90.

Regarding `O=c1[nH]c2ccccc2nc1/C=C/c1ccccc1Br`, the pIC50 in [20] is less than 4.30; in assay [21] it was 5.02; in [22] it was 4.91; in assay [23], 5.12.

With `Oc1nc2cc(Cl)c(Cl)cc2n2cnnc12`, the pIC50 in assay [1] was 5.33; in [4], 6.20.

On to `CC(C)Cc1nc2ccccc2[nH]c1=O`, for which the pIC50 in assay [11] is 4.64. For the same compound, the inhibition in assay [12] is 15%; in [13] it was 73%.

As to `O=c1[nH]c2ccc(C(F)(F)F)cc2nc1CBr`, the MIC – broadly, the smallest concentration in the dilution series that meets the test's criterion for growth inhibition – in assay [16] is 31.2 µg/mL (≈ 102 µM); in assay [17], 31.2 µg/mL (≈ 102 µM); in assay [24], 15.6 µg/mL (≈ 50.8 µM); in [25], 62.5 µg/mL (≈ 204 µM); in assay [26], 62.5 µg/mL (≈ 204 µM); in assay [27], 62.5 µg/mL (≈ 204 µM). In addition, the MIC was 250 µg/mL (≈ 814 µM) in assay [28], greater than 500 µg/mL in assay [29] and 62.5 µg/mL (≈ 204 µM) in assay [30].

As for `COc1ccc(C(=O)/C=C2/Nc3ccccc3NC2=O)cc1`, the negative-log IC50 (pIC50) in assay [31] was 4.17; in assay [32], 4.82; in assay [33], 4.61; in assay [34], 3.72.

In the case of `O=C(O)Cn1c(=O)c(/C=C/c2ccc(O)c(O)c2)nc2ccc(O)cc21`, in assay [6], the pIC50 is 6.99. For the same compound, the inhibition in assay [7] came to 42.1%. Also, the Activity was 96.2% in assay [8], 82.1% in assay [9] and 70.5% in assay [10].

For `COc1ccc2nc(/C=C/c3ccc(O)cc3)c(=O)n(CC(=O)O)c2c1`, in assay [6], the negative logarithm of the IC50 (pIC50) is 7.23. The compound also yielded an inhibition in [7] of 37.6%. Further, the Activity was determined as 59.2% in assay [8] and 34.3% in [9].

On to `CN1CCc2c([N+](=O)[O-])cc3[nH]c(=O)c(=O)[nH]c3c2C1`, for which the pIC50 in assay [1] was 7.20; in [2] it was 6.43; in assay [3] it was 6.43.

Regarding `CCC(C)CN1CCc2c(Br)cc3nc(O)c(O)nc3c2C1` (stereo unspecified), the pIC50 in assay [1] is less than 4.00; in assay [2], 5.54; in [3], less than 4.00.
